“Also recorded” adds a separate entry of the source.
Columns and labels:
[1] = tested on: coffee berry borer Hypothenemus hampei; assay: Field trapping trials in Costa Rica (Brocap traps in arabica coffee plantation); type: in vivo; conditions: Costa Rica field tests; result in words
Description: The trials carried out above were supplemented in 2017 in Costa Rica, in a context of larger coffee berry borer populations. The trapping trials were carried out between Feb. 21 and Apr. 27, 2017, in the commercial arabica coffee plantations of the CATIE (Centro Agronómico Tropical de Investigación y Enseñanza) [The Tropical Agricultural Research and Higher Education Center] in Turrialba, Costa Rica. […] The Coffea arabica var. caturra plantations, located at approximately 600 meters of altitude, were planted in 2010 in combination with Erythrina poeppigiana as shade trees. The rows are oriented along the contour lines with a spacing of 80 cm between the plants and 2 meters between the rows (6300 plants/ha). All of the plots benefit from considerable annual maintenance: pluriannual weeding or chemical weed-killing between the rows, chemical fertilization during fruit formation, fungicide and optionally insecticide treatments in the event of coffee berry borer infestation. The yields therefrom are medium, about 1000 kg/ha/year of green bean coffee. Brocap® traps were placed directly in the coffee trees, suspended from the branches at a height of approximately 1 meter and with a spacing between the traps of approximately 20 meters. […] The number of coffee berry borers trapped was recorded daily. […]

[2] = tested on: coffee berry borer Hypothenemus hampei; assay: Field trapping trials in Brazil (Unitrap traps in arabica coffee plantation); type: in vivo; conditions: Brazil field tests, result in words
Description: The trapping trials were carried out between Jan. 8 and Mar. 31, 2016, during the fruit maturation phase, in an arabica coffee plantation conducted under biodynamic conditions in the municipality of […] Boa Vista, in the State of São Paulo in Brazil, at an altitude of 800 m. For each test, three plots received trials, each representing a random complete block. The Coffea arabica var. tupi plantations were set up at the beginning of the 2000s in combination with shade trees (Acacia mangium, Acacia auriculiformis, […] sepium, Leucaena leucocephala). The rows are oriented along the contour lines with a variable spacing according to the plots (0.6 to 0.75×3 to 3.6 meters), and the shade trees are planted at regular intervals in the rows of coffee trees. All of the plots benefit from considerable annual maintenance: regular cutting between the rows, organic fertilization and weeding during fruit formation, foliar fertilization during bean swelling and maturation. […] The traps (Pherobank Unitrap wing model) were placed directly in the coffee trees, suspended from the branches at a height of 1.20 meters or as high as possible when the plants were smaller. The spacing between the traps is approximately 20 meters. The products used were supplied by Sigma-Aldrich. They are: The products were placed in 2 ml glass vials, in which the opening of the septum allows free diffusion by evaporation. A first diffuser contained 0.5 ml of ethanol and 0.5 ml of methanol. A second diffuser contained, where appropriate, the terpenoids diluted in paraffin (0.5 ml of (-)-limonene or 0.5 ml of (+)-limonene, 0.5 ml of paraffin and where appropriate 0.1 ml of (-)-α-pinene). The number of coffee berry borers trapped was recorded daily, and the modes tested were modified each week which represents a test. Each recording in each block represents a repetition. Between each test, the traps were washed with a 2% TFD4 solution and the diffusers were changed.

Compound | Effect on number of borers trapped when combined with the ethanol/methanol mixture, compared with the ethanol/methanol mixture alone [1] | Effect on number of borers trapped when combined with the ethanol/methanol mixture, compared with the alcohols alone [2] | Effect on number of borers trapped when combined with the ethanol/methanol mixture, compared with the alcohols alone ([2]; listed as (+) enantiomer of limonene)
CCCCC(CC)CO (racemic) [2-ethyl-1-hexanol, 2-Ethyl-1-hexanol] | clearly increased; also recorded: makes it possible to increase the trappings | – | –
C=CC(C)(O)CCC=C(C)C (stereo not drawn) [linalool, reference compound] | – | virtually disappears | –
C=C(C)[C@@H]1CC=C(C)CC1 [(−)-limonene, (S)-(−)-Limonene] | clearly increased | improves the attractiveness; also recorded: significantly increased; also recorded: clearly increased | –
C=C(C)[C@H]1CC=C(C)CC1 [(+)-limonene, (R)-(+)-Limonene, reference compound] | – | did not make it possible to improve the captures | does not increase the number of borers trapped

Source: patent publication US20190307123A1, “KIT OF ATTRACTANTS FOR ATTRACTING THE COFFEE BERRY BORER” (INSTITUT NATIONAL DE LA RECHERCHE AGRONOMIQUE, priority 2016, published 2019)
